Laboratory results published in ChEMBL document CHEMBL1152733, “Specificities of calreticulin transacetylase to acetoxy derivatives of 3-alkyl-4-methylcoumarins: effect on the activation of nitric oxide synthase” (Bioorg Med Chem, 2009).
Activity calls are given as the source filed them. The rule behind the calls is not given here.

How the values were obtained:
[1] = species: Rattus norvegicus; experiment: Inhibition of rat liver microsomal CRTAase-mediated inhibition of cytosolic glutathione S-transferase activity
[2] = system: Platelet; experiment: Increase in NO levels in citreated human platelet rich plasma assessed as enhancement of dichloro fluorescein fluorescence by flow cytometry; type: functional
[3] = species: Rattus norvegicus; experiment: Inhibition of rat liver microsomal CRTAase catalyzed activation of NADPH cytochrome C reductase

| Activity [1] | Activity [3] | Structure (SMILES) | Activity [2] |
| --- | --- | --- | --- |
| Active | Active | CCc1c(C)c2ccc(OC(C)=O)cc2oc1=O | Active |
| Active | Active | CCCCCCCCCCc1c(C)c2ccc(OC(C)=O)c(OC(C)=O)c2oc1=O | Active |
| Active | Active | CCCCCCCCCCc1c(C)c2ccc(OC(C)=O)cc2oc1=O | Active |
| Active | Active | CCCCCCc1c(C)c2ccc(OC(C)=O)c(OC(C)=O)c2oc1=O | Active |
| Active | Active | CCc1c(C)c2ccc(OC(C)=O)c(OC(C)=O)c2oc1=O | Active |
| Active | Active | CC(=O)Oc1ccc2c(C)cc(=O)oc2c1 | Active |
| Active | Active | CC(=O)Oc1ccc2c(C)cc(=O)oc2c1OC(C)=O | Active |
| Active | Active | CCCCCCc1c(C)c2ccc(OC(C)=O)cc2oc1=O | Active |
